These results are taken from patent publication US10408813B2, “Biosensor for detecting intracellular cyclic adenosine monophosphate (cAMP) and uses thereof” (Academia Sinica, priority 2015, dated 2019).

The target in assay [1] is GLP-1R (UniProt P01275+P32301). The assay can be described thus: BRET cAMP response assay in RINm5F cells, GLP-1R-mediated cAMP production. The conditions noted are these: for effect on cAMP responses to 200 μM of GLP-1 (7-36) amide: 9 uM OEA or 8.4 uM 2-OG; for effect on dose-response curve for GLP-1 (7-36) amide to stimulate cAMP production: lipid at 9 to 8 uM; for effect on potency of Ex-4 to stimulate cAMP production: lipid up to 27 uM; for effect on dose response curve / potency of GLP-1 (7-36) amide: lipids at concentrations indicated in FIG. 4C-E (ODA 72 uM); for effect on dose response curve of GLP-1 (7-36) amide: OA and LA at 106 and 107 uM, respectively. In kind it is cell-based, rat. (In general: In BRET a luciferase serves as donor, and the signal depends on an acceptor being close.)
Chain of GLP-1R (P32301 22-463, one chain of several): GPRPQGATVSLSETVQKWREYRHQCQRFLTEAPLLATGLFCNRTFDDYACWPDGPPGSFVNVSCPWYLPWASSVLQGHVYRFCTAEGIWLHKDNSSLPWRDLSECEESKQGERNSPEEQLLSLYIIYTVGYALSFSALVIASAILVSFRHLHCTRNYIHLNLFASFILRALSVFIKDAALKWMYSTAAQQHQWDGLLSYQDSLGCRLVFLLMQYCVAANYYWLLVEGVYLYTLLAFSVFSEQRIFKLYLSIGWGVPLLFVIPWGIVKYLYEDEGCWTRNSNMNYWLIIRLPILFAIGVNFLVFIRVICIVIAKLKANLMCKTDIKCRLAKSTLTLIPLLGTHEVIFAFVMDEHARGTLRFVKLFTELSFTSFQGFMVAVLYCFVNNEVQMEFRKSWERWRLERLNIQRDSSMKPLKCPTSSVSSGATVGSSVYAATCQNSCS

Assay [2] deals with T1, His-tagged GLP-1 (7-36) (Homo sapiens, UniProt P01275).
T1 construct: purchased LifeTein
The assay can be described thus: GLP-1 and OEA binding assay (3H-OEA, Cu-NTA resin capture). The protocol: Specific bound ^3H-OEA was obtained by subtracting the supernatant ^3H-OEA of reaction from supernatant ^3H-OEA of reaction without GLP-1. […] Copper-nitrilotriacetate resin (Cu^++-NTA), 3 uL in 30 uL of DPBS, was added to capture all the His-tagged GLP-1 (up to 60 uM in 80 uL reaction), further incubated with rotation at RT for 30 min. […] Bound ^3H-OEA=[supernatant ^3H-OEA of nonspecific binding]−[supernatant ^3H-OEA of total binding]. […] The bound ^3H-OEA and free ^3H-OEA were separated as described above, and specific binding was calculated; Bound ^3H-OEA=[supernatant ^3H-OEA of nonspecific binding reaction]−[supernatant ^3H-OEA in the total binding reaction]

In assay [3] the test system is RINm5F cells. Kind of assay: BRET cAMP response assay, lipids present alone. The assay is classed as cell-based, rat. The conditions noted are these: 28 μM for 2-OG.
For assay [4], the target named is T2, GPR119 (Homo sapiens, UniProt Q8TDV5).
T2 sequence (Q8TDV5 1-335): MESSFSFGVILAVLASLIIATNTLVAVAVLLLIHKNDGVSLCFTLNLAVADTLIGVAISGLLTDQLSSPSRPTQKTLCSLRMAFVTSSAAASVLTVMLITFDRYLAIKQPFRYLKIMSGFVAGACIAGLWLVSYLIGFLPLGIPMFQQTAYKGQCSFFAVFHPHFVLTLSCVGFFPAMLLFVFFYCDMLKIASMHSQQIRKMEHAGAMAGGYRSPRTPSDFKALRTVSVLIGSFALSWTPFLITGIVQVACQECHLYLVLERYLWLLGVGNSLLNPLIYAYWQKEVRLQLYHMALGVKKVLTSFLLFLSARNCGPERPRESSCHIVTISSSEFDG
The conditions noted are these: literature (34); read-out: reported EC50 to activate GPR119; cited from earlier work.

Assay [5] concerns the target RG-cAMP sensor in RINm5F cells (Homo sapiens, UniProt O95398, F824A/R193G/T823A). The assay can be described thus: BRET assay with RG-cAMP sensor, titration of membrane-permeable cAMP analog.
The test system of assay [6] is adenylyl cyclase. Kind of assay: BRET assay with RG-cAMP sensor, adenylyl cyclase activation by forskolin.
Assay [7] addresses T3, GLP-1R-V2R membrane (Homo sapiens, UniProt P01275+P43220).
T3 construct: the first 440 amino acids of the GLP-1R (Met1 to Thr440); expressed in transfected cells; host or cells: U2OS osteosarcoma cells stably co-expressing β-arrestin2:GFP; membrane preparation
The assay can be described thus: Receptor binding assay, saturation binding of 125I-GLP-1(7-36).

The target in assay [8] is T4, trypsin (Sus scrofa, UniProt P00761).
T4 construct: purchased Life Technologies (trypsin-EDTA, inferred); assay kit from BioVision
T4 sequence (P00761 9-231): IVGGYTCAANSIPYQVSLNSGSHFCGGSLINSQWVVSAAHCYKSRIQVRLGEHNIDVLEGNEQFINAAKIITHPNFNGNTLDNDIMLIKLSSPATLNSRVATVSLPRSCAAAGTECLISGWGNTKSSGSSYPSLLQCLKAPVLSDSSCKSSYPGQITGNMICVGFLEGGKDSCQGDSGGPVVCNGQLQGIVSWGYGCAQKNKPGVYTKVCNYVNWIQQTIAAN
Kind of assay: In vitro assay of trypsin activity in the presence of OEA. The assay is classed as biochemical. The conditions noted are these: 92 uM OEA, 0.000125% trypsin. Here is the method:
To determine whether OEA affects trypsin activity, we used the Trypsin Activity Colorimetric Test Kit (BioVision, Milpitas, Calif., USA). Briefly, 2 μL substrate was added to a well in 96-well plate containing 48 μL 0.000125% trypsin in the presence or absence of 92 uM OEA. Reactions were conducted at room temperature, and the extent of cleavage was monitored by real-time reading of optical density (OD) at 405 nm

In assay [9] the target is T5, GLP-1 (7-36) amide (Homo sapiens, UniProt P01275).
T5 construct: purchased LifeTein
The assay can be described thus: Limited trypsin digestion of GLP-1 (7-36) amide, residual activity by cAMP response in RINm5F cells.

The target in assay [10] is T6, receptors for GIP (Rattus norvegicus, UniProt P43219).
T6 sequence (P43219 19-455): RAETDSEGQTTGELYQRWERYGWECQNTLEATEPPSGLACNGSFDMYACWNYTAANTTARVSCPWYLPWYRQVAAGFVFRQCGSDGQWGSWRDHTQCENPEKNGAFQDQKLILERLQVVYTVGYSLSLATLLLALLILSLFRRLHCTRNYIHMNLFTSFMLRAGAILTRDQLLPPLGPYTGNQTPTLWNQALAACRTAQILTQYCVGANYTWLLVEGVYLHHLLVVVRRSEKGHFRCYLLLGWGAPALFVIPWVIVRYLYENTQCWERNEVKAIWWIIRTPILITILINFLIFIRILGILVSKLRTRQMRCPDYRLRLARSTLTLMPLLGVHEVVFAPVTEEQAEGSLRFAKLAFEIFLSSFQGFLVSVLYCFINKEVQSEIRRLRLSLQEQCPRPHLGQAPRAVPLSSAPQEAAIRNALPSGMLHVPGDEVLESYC
Kind of assay: BRET cAMP response assay in RINm5F cells, GIP receptor. The assay is classed as cell-based. The conditions noted are these: 5 uM antagonist (FIG. 3B).

The target in assay [11] is receptors for glucagon (Rattus norvegicus, UniProt P30082). The assay can be described thus: BRET cAMP response assay in RINm5F cells, glucagon receptor. The assay is classed as cell-based. The conditions noted are these: 100 uM antagonist (FIG. 3C).
Chain of receptors for glucagon (P30082 27-485): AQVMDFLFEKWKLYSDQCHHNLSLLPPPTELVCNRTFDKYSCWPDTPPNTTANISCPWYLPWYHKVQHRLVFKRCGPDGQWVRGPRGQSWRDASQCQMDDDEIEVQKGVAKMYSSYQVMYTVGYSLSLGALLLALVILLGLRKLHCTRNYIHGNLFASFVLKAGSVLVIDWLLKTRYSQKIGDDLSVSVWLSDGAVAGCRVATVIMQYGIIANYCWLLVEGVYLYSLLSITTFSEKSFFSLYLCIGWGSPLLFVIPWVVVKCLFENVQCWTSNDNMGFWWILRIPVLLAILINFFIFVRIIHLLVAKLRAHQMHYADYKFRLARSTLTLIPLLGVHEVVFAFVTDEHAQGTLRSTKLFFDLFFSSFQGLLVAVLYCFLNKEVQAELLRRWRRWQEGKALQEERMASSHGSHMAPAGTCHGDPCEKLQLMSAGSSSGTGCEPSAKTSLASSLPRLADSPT
[12] abbreviates: RINm5F cells stably expressing RG-cAMP sensor.

T3 sequence (P43220 with tags, fused parts or gaps limits assumed, one chain of several): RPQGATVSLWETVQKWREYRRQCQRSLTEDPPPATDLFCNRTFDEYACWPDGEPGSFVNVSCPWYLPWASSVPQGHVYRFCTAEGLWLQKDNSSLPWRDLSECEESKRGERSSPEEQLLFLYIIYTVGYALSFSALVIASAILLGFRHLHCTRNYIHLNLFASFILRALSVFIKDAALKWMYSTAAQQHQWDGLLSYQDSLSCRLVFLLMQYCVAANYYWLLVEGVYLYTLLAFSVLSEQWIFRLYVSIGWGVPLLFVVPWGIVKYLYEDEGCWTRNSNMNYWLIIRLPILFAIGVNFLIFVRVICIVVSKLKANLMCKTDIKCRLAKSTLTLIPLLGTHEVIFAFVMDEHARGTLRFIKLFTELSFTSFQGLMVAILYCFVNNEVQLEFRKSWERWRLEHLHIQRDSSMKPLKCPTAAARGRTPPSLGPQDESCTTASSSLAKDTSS

As for `CCCCCCCC/C=C\CCCCCCCC(=O)OC(CO)CO` [2-OG, 2-oleoylglycerol], in assay [1], the “effect on cAMP responses to 200 μM of GLP-1 (7-36) amide” value is recorded as “remarkably enhanced”, the “effect on dose-response curve for GLP-1 (7-36) amide to stimulate cAMP production” value is on record as “markedly left-shifted” and the “effect on potency of Ex-4 to stimulate cAMP production” value is “unaltered”. Affinity in assay [2] was put at a Ki of 100 ± 30 nM. The “cAMP response to lipid present alone” value in [3] is “did not elicit cAMP responses”. Also, in assay [4], the EC50 was 2900 nM.
With `COC1C2OP(=O)(OCOC(C)=O)OCC2OC1n1c(Br)nc2c(N)ncnc21` (stereo not shown) [8-Br-2-O-Me-cAMP-AM, 8-Br-2′-O-Me-cAMP-AM], the “concentration at which half maximal reduction of BRET ratio is elicited (EC50)” value in assay [5] (setting [12]) was found to be 2600 nM. Also, the BRET ratio reduction in assay [5] (concentration change from 0.2 μM to 50 μM) came out at 0.45 unit.
Take `CC/C=C\C/C=C\C/C=C\CCCCCCCC(=O)O` [ALA, α-linolenic acid]: the “effect on dose response curve / potency of GLP-1 (7-36) amide” value (shortened to “effect on dose response curve / potency”) in assay [1] is “did not show such an effect”.
In the case of `CCCCC/C=C\C/C=C\CCCCCCCC(=O)O` [LA, linoleic acid], the “effect on dose response curve of GLP-1 (7-36) amide” value in [1] was “consistently but mildly left-shifted”.
Turning to `Cl.c1ccc(C2CCCC2NC2=NCCCCCCCCCCC2)cc1` (stereo not shown) [MDL-12,330A], the “effect on forskolin-elicited BRET response” value in assay [6] (250 μM inhibitor) is “eliminated”.
Regarding `CCCCCCCC/C=C\CCCCCCCC(=O)O` [OA, oleic acid], the “effect on dose response curve of GLP-1 (7-36) amide” value in assay [1] is “consistently but mildly left-shifted”.
For the molecule `CCCCCCCC/C=C\CCCCCCCC(=O)NCCc1ccc(O)c(O)c1` [ODA, n-oleoyldopamine], the “effect on dose response curve / potency” value in [1] is reported as “did not affect GLP-1 potency”.
Regarding `CCCCCCCC/C=C\CCCCCCCC(=O)NCCO` [OEA, oleoylethanolamide], in [1], the “effect on cAMP responses to 200 μM of GLP-1 (7-36) amide” value is reported as “remarkably enhanced”, the “effect on dose-response curve for GLP-1 (7-36) amide to stimulate cAMP production” value is reported as “markedly left-shifted” and the “effect on potency of Ex-4 to stimulate cAMP production” value is given as “unaltered”. Further, in assay [7] (in the presence of 9.2 uM OEA), the “Bmax of 125I-GLP-1” value is recorded as 51±6.5 pmole/mg of membrane. Also, the “effect on innate trypsin activity” value in assay [8] was “does not affect the innate trypsin activity”. In assay [9] (0.00067% trypsin, OEA increased from 1 uM to 92 uM), the “factor of reduction of residual activity of GLP-1 (7-36) amide after trypsin digestion” value is “more than 40”. In addition, in [9] (trypsin cleavage in the presence of 92 uM OEA), the “factor of reduction of GLP-1 activity after trypsin cleavage” value is on record as “more than 300”. Moreover, the “cAMP response to lipid present alone” value in [3] is recorded as “did not elicit cAMP responses”. For the same molecule, in assay [4], the EC50 was 2900 nM.
As for `CCCCCCCCCCCCCCCC(=O)NCCO` [PEA, palmitoylethanolamide], in assay [1], the “effect on dose response curve / potency” value is reported as “did not affect GLP-1 potency”.
The same measure, in the same setting: in the case of `CCCCCCCCCCCCCCCCCC(=O)O` [SA, stearic acid] it was “did not show such an effect”.
For the molecule `CCCCCCCCCCCCCCCCCC(=O)NCCO` [SEA, stearoylethanolamide], the “effect on dose response curve / potency” value in [1] is reported as “did not affect GLP-1 potency”. In addition, in [2] (competition assay), the “effect on binding of 3H-OEA to His-tagged GLP-1(7-36)” value is given as “did not affect the binding”. Also, in [9] (1 uM to 92 uM lipid, 0.00067% trypsin), the “effect on trypsin digestion of GLP-1 (7-36) amide” value is recorded as “did not affect trypsin digestion”.
Turning to `[3H]/C(CCCCCCCC)=C(\[3H])CCCCCCCC(=O)NCCO` [^3H-OEA, Oleoyl [9,10-^3H]ethanolamide, reference compound], in assay [2] (0.1 uM His-tagged GLP-1 (7-36), estimated), the “concentration of 3H-OEA to achieve half-maximal binding” value is 0.28 ± 0.07 µM. The “specific binding to GLP-1 receptor” value in assay [7] is listed as “not able to observe detectable specific binding”.
For `C=C[C@@]1(C)CC(=O)[C@]2(O)[C@@]3(C)[C@@H](O)CCC(C)(C)[C@@H]3[C@H](O)[C@H](OC(C)=O)[C@@]2(C)O1` [forskolin], in assay [6] (setting [12]), the “EC50 for reduction of BRET ratio” value was found to be 70 nM. Besides, the “BRET ratio reduction, basal cAMP level to maximally stimulated” value in [6] (maximal forskolin stimulation) is 0.3 unit.
Take `CCCCC/C=C\C/C=C\C/C=C\CCCCC(=O)O` [γ-LA, γ-linolenic acid]: the “effect on dose response curve / potency” value in [1] is given as “did not show such an effect”.
Regarding “Ex-9: GLP-1 receptor antagonist exendin 9 [reference compound]”, in assay [1] (500 nM antagonist (FIG. 3A)), the “effect of antagonist on cAMP response to GLP-1 (7-36) amide” value was “curtailed”. In assay [1] (500 nM exendin 9, GLP-1 (7-36) amide with OEA or 2-OG), the “lipid enhancement and cAMP responses with GLP-1 receptor signaling blocked” value is “barely detectable”.
In the case of “GIP(8-42): GIP antagonist, SEQ ID NO: 14 (SDYSIAMDKIHQQDFVNWLLAQKGKKNDWKHNITQ; GIP 8-42)”, the “effect of antagonist on cAMP response to GIP” value in [10] was “curtailed”.
Turning to “His-tagged GLP-1 (7-36): SEQ ID NO: 6, six consecutive histidine residues tagged to the C-terminal of GLP-1 (7-36) peptide (HAEGTFTSDVSSYLEGQAAKEFIAWLVKGRHHHHHH; His-tagged GLP-1 (7-36)) [reference compound]”, the “concentration of GLP-1 to achieve half-maximal binding of OEA” value in assay [2] (0.2 uM 3H-OEA, estimated) is 0.16 ± 0.05 µM.
Consider “[des-His1,Glu9]-glucagon amide: glucagon antagonist”, for which, in [11], the “effect of antagonist on cAMP response to glucagon” value is “curtailed”.

What is called Ki is the equilibrium dissociation constant of an inhibitor or competing ligand from its target. A low value points to tighter binding. What is called EC50 is the concentration that produces a half-maximal response.
